The values that follow come from patent US20210379046A1, “Methods of Treating Diseases Using Kinase Modulators” (Memorial Sloan Kettering Cancer Center, priority 2018, published 2021).

“Also recorded” adds a separate entry of the source.

Common to all, as to type: cell-based, human
The subject of assay [1] is TPC1 cells. In words: Mass spectrometry of eluted HLA class I presented peptides, TPC1 cells. On the procedure: After 72 hrs, cells were harvested, washed, lysed. The lysate was run through an activated Sepharose-CNBr column coupled to the W6/32 antibody to bind HLA-A,B,C from the cell. The peptides bound by those HLAs and captured on the column were then eluted and mass spectrometry was run on those peptides.
Immunopurification affinity columns were prepared as described previously (Bassani-Sternberg et al., 2015, Mol Cell Proteomics 14(3):658-673). In brief, 40 mg of Cyanogen bromide-activated-Sepharose® 4B (Sigma-Aldrich, Cat #C9142) was activated with 1 mM hydrochloric acid (Sigma-Aldrich, Cat #320331) for 30 min. Subsequently, 0.5 mg of W6/32 antibody (BioXCell, BE0079; RRID: AB 1107730) was coupled to sepharose in presence of binding buffer (150 mM sodium chloride, 50 mM sodium bicarbonate, pH 8.3; sodium chloride: Sigma-Aldrich, Cat #S9888, sodium bicarbonate: Sigma-Aldrich, Cat #56014) for at least 2 hours at room temperature. Sepharose was blocked for 1 h with glycine (Sigma-Aldrich, Cat #410225). Columns were equilibrated with PBS for 10 min. […]. Afterwards, cells were lysed in 1 ml 1% CHAPS (Sigma-Aldrich, Cat #C3023) in PBS, supplemented with 1 tablet of protease inhibitors (cOmplete, Cat #11836145001) for 1 hour at 4° C. This lysate was spun down for 1 hour at 20,000 g at 4° C. Supernatant was run over the affinity column through peristaltic pumps at 1 ml/min overnight at 4° C. Affinity columns were washed with PBS for 15 min, run dry, and HLA complexes subsequently eluted three times with 200 μl 1% trifluoracetic acid (TFA, Sigma/Aldrich, Cat #02031). For separation of HLA ligands from their HLA complexes tC18 columns (Sep-Pak tC18 1 cc VacCartridge, 100 mg Sorbent per Cartridge, 37-55 μm Particle Size, Waters, Cat #WAT036820) were prewashed with 80% acetonitrile (ACN, Sigma-Aldrich, Cat #34998) in 0.1% TFA and equilibrated with two washes of 0.1% TFA. Samples were loaded, washed again with 0.1% TFA and eluted in 400 μl 30% ACN in 0.1% TFA. Sample volume was reduced by vacuum centrifugation for mass spectrometry analysis.
Samples were analyzed by a high resolution/high accuracy LC-MS/MS (Lumos Fusion, Thermo Fisher). Peptides were desalted using ZipTips (Sigma Millipore, Cat. #ZTC18S008) according to manufactures instructions and concentrated using vacuum centrifugation prior to being separated using direct loading onto a packedin-emitter C18 column (75 um ID/12 cm, 3 μm particles, Nikkyo Technos Co., Ltd. Japan). The gradient was delivered at 300 nl/min increasing linear from 2% Buffer B (0.1% formic acid in 80% acetonitrile)/98% Buffer A (0.1% formic acid) to 30% Buffer B/70% Buffer A, over 70 minutes. MS and MS/MS were operated at resolutions of 60,000 and 30,000, respectively. Only charge states 1, 2 and 3 were allowed. 1.6 Th was chosen as the isolation window and the collision energy was set at 30%. For MS/MS, the maximum injection time was 100 ms with an AGC of 50,000.
Mass spectrometry data was processed using Byonic software (version 2.7.84, Protein Metrics, PaloAlto, Calif.) through a custom-built computer server equipped with 4 Intel Xeon E5-4620 8-core CPUs operating at 2.2 GHz, and 512 GB physical memory (Exxact Corporation, Freemont, Calif.). Mass accuracy for MS1 was set to 10 ppm and to 20 ppm for MS2, respectively. Digestion specificity was defined as unspecific and only precursors with charges 1, 2, and 3 and up to 2 kDa were allowed. Protein FDR was disabled to allow complete assessment of potential peptide identifications. Oxidization of methionine, N-terminal acetylation, phosphorylation of serine, threonine and tyrosine were set as variable modifications for all samples. All samples were searched against the UniProt Human Reviewed Database (20,349 entries, uniprot.org, downloaded June 2017). […]

Assay [2] deals with TPC1 cells. In words: Luminex cytokine secretion, TPC1 cells. As to conditions: TPC1, 10 nm AST487. On the procedure:
Supernatant media were harvested after treatment and analyzed by the Luminex device (Luminex Corporation, Austin, Tex.) for relevant cytokine secretion. […] On the left side of each panel is data after 24 hours. On the right side of each panel is data after 48 hours. […] IFNγ detected in the Luminex assay (50-70 ng/ml) is from the added IFNγ at 100 ng/ml at time zero. Therefore, the increase in HLA after inhibitor treatment in these cell lines is not due to indirect activation of the JAK/STAT pathway via autocrine cytokine signaling. The data points shown in this figure are in pairs for each condition. The data point pairs for each time point are, from left to right: DMSO, Rux, Alec, IFNg, and IFNg+Rux.

Assay [3] has as its system pSTAT3, pSTAT1 in TPC1 cells. In words: Western blot of STAT phosphorylation in TPC1 cells. As to conditions: TPC1, 10 nM AST487, 24 hrs. How it is done: Cells were seeded in a 60 mm dish or 6 well plates. After the appropriate time point, cells were harvested and lysed and protein was quantified by a Lowry assay (Bio-Rad DC Protein Assay; #5000116). Protein levels were normalized and run on SDS PAGE gels (Bio-Rad). Protein was transferred to a nitrocellulose membrane using semi-dry transfer. Membrane was blocked and incubated with respective antibodies. When needed, secondary antibodies with HRP were incubated for 1 hr. Enhanced chemiluminescent substrate for HRP enzymes was used to image protein levels (Thermo-Fischer; #34095).
Cells were seeded in a 60 mm dish or 6 well plates. After the appropriate time point, cells were harvested, lysed in RIPA buffer (Thermo Instruments) and protein concentration was quantified by a Lowry assay (using the Bio-Rad DC Protein Assay; #5000116 on a Spectramax device from Molecular Devices). Protein loading levels were equalized per lane and separated on SDS gels (Bio-Rad). Protein was transferred to a nitrocellulose membrance using semi-dry transfer (BioRad). Membranes were blocked with Omniblock (American Bio) and incubated with respected antibodies. When needed, secondary antibodies with HRP were incubated for 1 hr. Enhanced chemiluminescent substrate for HRP enzymes was used to image protein levels (Thermo-Fischer; #34095) on a ChemiDoc MP imager with Soft Max Pro software (Biorad).

As for `CCN1CCN(Cc2ccc(NC(=O)Nc3ccc(Oc4cc(NC)ncn4)cc3)cc2C(F)(F)F)CC1` [AST487], the “runs TEIPP peptide was found in (n = 3)” value in the assay with TPC1 cells [1] (ALFSFVTAL (SEQ ID NO: 11)) came to 0; with TPC1 cells [1] (FLGPWPAAS (SEQ ID NO: 12)), 1; in the assay on TPC1 cells [1] (FLSELQYYL (SEQ ID NO: 13)), 0; in the assay on TPC1 cells [1] (FLYPFLSHL (SEQ ID NO: 14)), 0; with TPC1 cells [1] (ILEYLTAEV (SEQ ID NO: 15)) it was 0; with TPC1 cells [1] (LLALAAGLAV (SEQ ID NO: 16)), 0. For the same molecule, the “runs TEIPP peptide was found in (n = 3)” value in the assay with TPC1 cells [1] (LLLDVPTAAV (SEQ ID NO: 17)), in the assay on TPC1 cells [1] (LLLSAEPVPA (SEQ ID NO: 18)), with TPC1 cells [1] (LLWGRQLFA (SEQ ID NO: 19)), with TPC1 cells [1] (LSEKLERI (SEQ ID NO: 20)), with TPC1 cells [1] (LTLLGTLWGA (SEQ ID NO: 21)) and with TPC1 cells [1] (SVLWLGALGL (SEQ ID NO: 22)) was 0 each time. Also, the “runs TEIPP peptide was found in (n = 3)” value with TPC1 cells [1] (TLLGASLPA (SEQ ID NO: 23)), in the assay with TPC1 cells [1] (VIIKPLVWV (SEQ ID NO: 24)), with TPC1 cells [1] (VLAVFIKAV (SEQ ID NO: 25)) and in the assay with TPC1 cells [1] (VLLDHLSLA (SEQ ID NO: 26)) was 0 each time. The “new peptides (only peptides found in all three runs counted)” value in the assay on TPC1 cells [1] (TPC1, 10 nM AST487 or 100 nM cabozantinib) is 458. The unique ligands presented in the assay with TPC1 cells [1] (TPC1, 10 nM AST487 or 100 nM cabozantinib, three runs pooled, DMSO 4211) came out at 5274. The “increase in unique peptides vs DMSO” value in the assay with TPC1 cells [1] (TPC1, three runs pooled) was found to be 25%. Further, the “unique HLA ligands detected in all 3 runs” value in the assay with TPC1 cells [1] (TPC1, DMSO 195) amounted to 585. Further, the “IFNα, IFNγ, IL4, IL6 and TNFα secretion” value in the assay on TPC1 cells [2] was “had no effect on IFNα, IFNγ, IL4, IL6 or TNFα secretion; also recorded: had no effect on IFNα, IFNγ, IL4, IL6 and TNFα secretion”. Besides, the STAT3 phosphorylation entry in assay [3] was “increased significantly; also recorded: increased phosphorylation of STAT3 at 24 hrs”.
